The test system of one assay is Alternaria solani. The assay can be described thus: Alternaria solani/tomato/leaf disc (early blight). The class given is in vivo. As to conditions: 200 ppm; tomato leaf disks cv. Baby; inoculated 2 days after application; assessed 5-7 days after application. As to the method: Tomato leaf disks cv. Baby are placed on agar in multiwell plates (24-well format) and sprayed with the formulated test compound diluted in water. The leaf disks are inoculated with a spore suspension of the fungus 2 days after application. The inoculated leaf disks are incubated at 23° C./21° C. (day/night) and 80% rh under a light regime of 12/12 h (light/dark) in a climate cabinet and the activity of a compound is assessed as percent disease control compared to untreated when an appropriate level of disease damage appears on untreated check disk leaf disks (5-7 days after application).

Another assay deals with Botryotinia fuckeliana. Nature of the assay: Botryotinia fuckeliana (Botrytis cinerea)/liquid culture (gray mould). The class given is cell-based. As to conditions: liquid culture, Vogels broth, 24° C., growth inhibition photometric 3-4 days after application, read-out: control of Botryotinia fuckeliana compared to untreated control. As to the method: Conidia of the fungus from cryogenic storage are directly mixed into nutrient broth (Vogels broth). After placing a (DMSO) solution of test compound into a microtiter plate (96-well format), the nutrient broth containing the fungal spores is added. The test plates are incubated at 24° C. and the inhibition of growth is determined photometrically 3-4 days after application.

A further assay relates to Glomerella lagenarium. Nature of the assay: Glomerella lagenarium (Colletotrichum lagenarium)/liquid culture (anthracnose). The class given is cell-based. As to conditions: Colletotrichum orbiculare, liquid culture, PDB, 24° C., growth inhibition photometric 3-4 days after application, read-out: control of Glomerella lagenarium compared to untreated control. As to the method:
Conidia of the fungus from cryogenic storage are directly mixed into nutrient broth (PDB potato dextrose broth). After placing a (DMSO) solution of test compound into a microtiter plate (96-well format), the nutrient broth containing the fungal spores is added. The test plates are incubated at 24° C. and the inhibition of growth is measured photometrically 3-4 days after application.

Assay [1] deals with Blumeria graminis f. sp. tritici. Nature of the assay: Blumeria graminis f. sp. tritici/wheat/leaf disc preventative (powdery mildew on wheat). As to conditions: 200 ppm, wheat leaf segments cv. Kanzler, inoculated 1 day after application, assessed 6-8 days after application. The class given is in vivo. On the procedure:
Wheat leaf segments cv. Kanzler are placed on agar in a multiwell plate (24-well format) and sprayed with the formulated test compound diluted in water. The leaf disks are inoculated by shaking powdery mildew infected plants above the test plates 1 day after application. The inoculated leaf disks are incubated at 20° C. and 60% rh under a light regime of 24 h darkness followed by 12 h light/12 h darkness in a climate chamber and the activity of a compound is assessed as percent disease control compared to untreated when an appropriate level of disease damage appears on untreated check leaf segments (6-8 days after application).

In a further assay the test system is Fusarium culmorum. Nature of the assay: microbe, parasite or virus in culture. Format: cell-based. As to conditions: read-out: control of Fusarium culmorum compared to untreated control. On the procedure: Conidia of the fungus from cryogenic storage are directly mixed into nutrient broth (PDB potato dextrose broth). After placing a (DMSO) solution of test compound into a microtiter plate (96-well format), the nutrient broth containing the fungal spores is added. The test plates are incubated at 24° C. and the inhibition of growth is determined photometrically 3-4 days after application.

For a further assay, the system named is Phaeosphaeria nodorum. Nature of the assay: Phaeosphaeria nodorum (Septoria nodorum)/wheat/leaf disc preventative (glume blotch). The class given is in vivo. As to conditions: 200 ppm, wheat leaf segments cv. Kanzler, inoculated 2 days after application, assessed 5-7 days after application. On the procedure:
Wheat leaf segments cv. Kanzler are placed on agar in a multiwell plate (24-well format) and sprayed with the formulated test compound diluted in water. The leaf disks are inoculated with a spore suspension of the fungus 2 days after application. The inoculated test leaf disks are incubated at 20° C. and 75% rh under a light regime of 12 h light/12 h darkness in a climate cabinet and the activity of a compound is assessed as percent disease control compared to untreated when an appropriate level of disease damage appears in untreated check leaf disks (5-7 days after application).

Another assay relates to Monographella nivalis. Nature of the assay: Monographella nivalis (Microdochium nivale)/liquid culture (foot rot cereals). The following applies: liquid culture, PDB, 24° C., growth inhibition photometric 4-5 days after application, read-out: control of Monographella nivalis compared to untreated control. Format: cell-based. On the procedure:
(§1) Conidia of the fungus from cryogenic storage are directly mixed into nutrient broth (PDB potato dextrose broth). After placing a (DMSO) solution of test compound into a microtiter plate (96-well format), the nutrient broth containing the fungal spores is added. The test plates are incubated at 24° C. and the inhibition of growth is determined photometrically 4-5 days after application.

The next assay deals with Mycosphaerella arachidis. The assay can be described thus: Mycosphaerella arachidis (Cercospora arachidicola)/liquid culture (early leaf spot). Format: cell-based. The following applies: liquid culture, PDB, 24° C., growth inhibition photometric 4-5 days after application, read-out: control of Mycosphaerella arachidis compared to untreated control. As to the method:
as §1

The test system of a further assay is Pyrenophora teres. Nature of the assay: Pyrenophora teres/barley/leaf disc preventative (net blotch). The following applies: 200 ppm, barley leaf segments cv. Hasso, inoculated 2 days after application, assessed 5-7 days after application. Format: in vivo. On the procedure:
Barley leaf segments cv. Hasso are placed on agar in a multiwell plate (24-well format) and sprayed with the formulated test compound diluted in water. The leaf segments are inoculated with a spore suspension of the fungus 2 days after application. The inoculated leaf segments are incubated at 20° C. and 65% rh under a light regime of 12 h light/12 h darkness in a climate cabinet and the activity of a compound is assessed as disease control compared to untreated when an appropriate level of disease damage appears in untreated check leaf segments (5-7 days after application).

Another assay deals with Sclerotinia sclerotiorum. The assay can be described thus: Sclerotinia sclerotiorum/liquid culture (cottony rot). The class given is cell-based. As to conditions: liquid culture (mycelia fragments), PDB, 24° C., growth inhibition photometric 3-4 days after application, read-out: control of Sclerotinia sclerotiorum compared to untreated control. On the procedure: Mycelia fragments of a newly grown liquid culture of the fungus are directly mixed into nutrient broth (PDB potato dextrose broth). After placing a (DMSO) solution of test compound into a microtiter plate (96-well format) the nutrient broth containing the fungal material is added. The test plates are incubated at 24° C. and the inhibition of growth is determined photometrically 3-4 days after application.

In assay [2] the test system is Mycosphaerella graminicola. The assay can be described thus: Mycosphaerella graminicola (Septoria tritici)/liquid culture (Septoria blotch). Format: cell-based. As to conditions: Zymoseptoria tritici, liquid culture, PDB, 24° C., growth inhibition photometric 4-5 days after application, read-out: control of Mycosphaerella graminicola compared to untreated control. As to the method: as §1

Another assay concerns Gibberella zeae. Format: in vivo, Gibberella zeae (Fusarium graminearum). As to conditions: 200 ppm; preventative; wheat spikelets cv. Monsun; inoculated one day after application; assessed 6-8 days after application.
Assay [3] has as its system Puccinia recondita f. sp. tritici. The assay can be described thus: Puccinia recondita f. sp. tritici/wheat/leaf disc curative (brown rust). Format: in vivo. The following applies: 200 ppm, applied 1 day after inoculation, wheat leaf segments cv. Kanzler, assessed 6-8 days after application. On the procedure:
Wheat leaf segments cv. Kanzler are placed on agar in multiwell plates (24-well format). The leaf segments are inoculated with a spore suspension of the fungus. Plates are stored in darkness at 19° C. and 75% rh. The formulated test compound diluted in water is applied 1 day after inoculation. The leaf segments are incubated at 19° C. and 75% rh under a light regime of 12 h light/12 h darkness in a climate cabinet and the activity of a compound is assessed as percent disease control compared to untreated when an appropriate level of disease damage appears in untreated check leaf segments (6-8 days after application).

The test system is the same in assay [4]. Nature of the assay: Puccinia recondita f. sp. tritici/wheat/leaf disc preventative (brown rust). The class given is in vivo. The following applies: 200 ppm, inoculated 1 day after application, wheat leaf segments cv. Kanzler, assessed 7-9 days after application. As to the method:
Wheat leaf segments cv. Kanzler are placed on agar in multiwell plates (24-well format) and sprayed with the formulated test compound diluted in water. The leaf disks are inoculated with a spore suspension of the fungus 1 day after application. The inoculated leaf segments are incubated at 19° C. and 75% rh under a light regime of 12 h light/12 h darkness in a climate cabinet and the activity of a compound is assessed as percent disease control compared to untreated when an appropriate level of disease damage appears in untreated check leaf segments (7-9 days after application).

As for `C[C@H]1c2ccccc2[C@@H](c2cnn(C)c2Cl)CN1C(=O)c1cn(-c2ccc(F)cc2F)nn1` [Compound P-48, [(1S,4S)-4-(5-chloro-1-methyl-pyrazol-4-yl)-1-methyl-3,4-dihydro-1H-isoquinolin-2-yl]-[1-(2,4-difluorophenyl)triazol-4-yl]methanone], the “control of Alternaria solani compared to untreated control” value in the assay on Alternaria solani is “at least 80%”. The inhibition of growth at 20 ppm in the assay with Botryotinia fuckeliana, in the assay on Glomerella lagenarium, in the assay with Fusarium culmorum, in the assay on Monographella nivalis, in the assay on Mycosphaerella arachidis and in the assay on Sclerotinia sclerotiorum was not below 80% in each case. Besides, in assay [2], the inhibition of growth at 20 ppm is not below 80%. Further, in [1], the “control of Blumeria graminis f. sp. tritici compared to untreated control” value is “at least 80%”. Moreover, in the assay on Phaeosphaeria nodorum, the “control of Phaeosphaeria nodorum compared to untreated control” value is listed as “at least 80%”. In addition, in the assay with Pyrenophora teres, the “control of Pyrenophora teres compared to untreated control” value is “at least 80%”.
For the molecule `C[C@H]1c2ccccc2[C@@H](c2cnn(C)c2Cl)CN1C(=O)c1cn(-c2ncc(F)cc2F)nn1` [Compound P-54, [(1S,4S)-4-(5-chloro-1-methyl-pyrazol-4-yl)-1-methyl-3,4-dihydro-1H-isoquinolin-2-yl]-[1-(3,5-difluoro-2-pyridyl)triazol-4-yl]methanone], the “control of Alternaria solani compared to untreated control” value with Alternaria solani is on record as “at least 80%”. Besides, the inhibition of growth at 20 ppm (in the assay with Botryotinia fuckeliana; with Glomerella lagenarium; with Fusarium culmorum; in the assay with Monographella nivalis; in the assay on Mycosphaerella arachidis; in [2]) was not below 80% in each case. Also, the “control of Blumeria graminis f. sp. tritici compared to untreated control” value in assay [1] was “at least 80%”. The “control of Gibberella zeae compared to untreated control” value in the assay on Gibberella zeae is on record as “at least 80%”. Further, in the assay with Phaeosphaeria nodorum, the “control of Phaeosphaeria nodorum compared to untreated control” value is “at least 80%”. Also, in the assay on Pyrenophora teres, the “control of Pyrenophora teres compared to untreated control” value is “at least 80%”.
As for `Cc1c([C@H]2CN(C(=O)c3nnn(-c4ccc(F)cc4F)n3)[C@@H](C)c3ccccc32)cnn1C` (racemic) [Compound P-42, [2-(2,4-difluorophenyl)tetrazol-5-yl]-[rac-(1S,4S)-4-(1,5-dimethylpyrazol-4-yl)-1-methyl-3,4-dihydro-1H-isoquinolin-2-yl]methanone], in the assay on Alternaria solani, the “control of Alternaria solani compared to untreated control” value was “at least 80%”. The inhibition of growth at 20 ppm in the assay with Botryotinia fuckeliana, in the assay with Glomerella lagenarium, with Fusarium culmorum, in the assay on Monographella nivalis, in the assay on Mycosphaerella arachidis and with Sclerotinia sclerotiorum was not below 80% each time. Also, the inhibition of growth at 20 ppm in assay [2] was not below 80%. In addition, the “control of Blumeria graminis f. sp. tritici compared to untreated control” value in assay [1] is on record as “at least 80%”. In the assay on Phaeosphaeria nodorum, the “control of Phaeosphaeria nodorum compared to untreated control” value is on record as “at least 80%”. The “control of Puccinia recondita f. sp. tritici compared to untreated control” value in assay [3] and in assay [4] was “at least 80%” in each case. For the same molecule, the “control of Pyrenophora teres compared to untreated control” value in the assay with Pyrenophora teres is given as “at least 80%”.

Source of the values: patent US20260324639A1, “MICROBIOCIDAL PYRAZOLE DERIVATIVES” (SYNGENTA CROP PROTECTION AG, priority 2022, published 2026).
